Series [1] can be described thus: Half life in Sprague-Dawley rat at 10 mg/kg, po measured up to 24 hrs by LC-MS/MS analysis. To be noted: in vivo. Format: ADME, organism-based.
For series [2], the species on record is Homo sapiens. The experiment in a line: Selectivity index, ratio of EC50 for THRalpha (unknown origin) to EC50 for THRbeta (unknown origin).
Series [3] is described as follows: Half life in Beagle dog at 10 mg/kg, po measured up to 24 hrs by LC-MS/MS analysis. As to conditions: in vivo. Format: ADME, organism-based, Canis lupus familiaris.
Series [4] in a line: Half life in cynomolgus monkey at 10 mg/kg, po measured up to 24 hrs by LC-MS/MS analysis. To be noted: in vivo. Type of series: ADME, organism-based, Macaca fascicularis.
Series [5] is filed under the species Rattus norvegicus. Put plainly: Antihyperlipidemic activity in high cholesterol diet-induced Sprague-Dawley rat model of hypercholesterolemia assessed as reduction in serum total cholesterol level after 24 hrs. Format: functional, organism-based.
Series [6] has as its system Mus musculus. The experiment in a line: Agonist activity at THRbeta in C57BL/6J mouse model of NASH assessed as increase in CYP7A1 gene expression in liver at 30 mg/kg, po via gavage administered once daily for 28 days. To be noted: time 28.0 day. Format: functional, organism-based.
A short description of series [7]: Tmax in Sprague-Dawley rat at 3 mg/kg, ip. Format: ADME, organism-based. As to conditions: in vivo.
The nature of series [8]: Volume of distribution at steady state in Sprague-Dawley rat at 1 mg/kg, iv and 2 mg/kg, po. Type of series: ADME, organism-based. As to conditions: in vivo, read-out: Vdss.
Series [9] can be described thus: AUC (0 to 24 hrs) in C57BL/6J mouse at 30 mg/kg, po administered via gavage as single dose. Type of series: ADME, organism-based. Further details: time < 24 hr, route oral, dose 30 mg/kg. To be noted: in vivo.
Series [10] is described as follows: Plasma clearance in Sprague-Dawley rat at 1 mg/kg, iv and 2 mg/kg, po. Format: ADME, organism-based.
The test system of series [11] is Mus musculus. Put plainly: Anti-hepatosteatosis activity in C57BL/6J mouse model of high fat-induced obesity assessed as reduction in liver steatosis at 30 mg/kg, po via gavage administered once daily for 28 days by hematoxylin-eosin staining based histological analysis. Format: functional, organism-based. As to conditions: time 28.0 day.
The nature of series [12]: MRT in Sprague-Dawley rat at 3 mg/kg, ip. As to conditions: in vivo. Format: ADME, organism-based.
The nature of series [13]: Dissociation constant, pKa of compound. Type of series: physicochemical.
For series [14], the system named is Mus musculus. The experiment in a line: Antifibrotic activity in CCl4-induced C57BL/6J mouse model of liver fibrosis assessed as reduction in liver fibrosis at 30 mg/kg, po via gavage administered once daily for 28 days by Sirius Red staining based histological analysis. Format: functional, organism-based. As to conditions: time 28.0 day.
The nature of series [15]: Oral bioavailability in Sprague-Dawley rat at 2 mg/kg. To be noted: in vivo. Format: ADME, organism-based.
Series [16] relates to Mus musculus. Put plainly: Agonist activity at THRbeta in C57BL/6J mouse model of NASH assessed as increase in Dio1 gene expression in liver at 30 mg/kg, po via gavage administered once daily for 28 days. Format: functional, organism-based. To be noted: time 28.0 day.

Active and inactive are the calls of the source. No cut-off for these calls is given here.

What is called half-life is how long it takes for the measured level to halve. As for `Cc1cc(OCP(=O)(O)O)cc(C)c1Cc1ccc(O)c(C(C)C)c1` [MB07344], the values for the half-life in series [1], in series [3] and in series [4] were 9.3 h, 10.2 h and 6.5 h, respectively. For the same molecule, the Ratio EC50 in series [2] is 2.1.

Regarding `CC(C)c1cc(Oc2c(Cl)cc(-n3nc(C#N)c(=O)[nH]c3=O)cc2Cl)n[nH]c1=O`, in series [2], the Ratio EC50 is 15.

With `CC(C)c1cc(Oc2c(Cl)cc(NC(C)c3noc(=O)[nH]3)cc2Cl)nn(C)c1=O` (racemic), the Ratio EC50 in [2] amounted to 0.2.

With `CC(CO)c1cc(Oc2c(Cl)cc(NC(=O)c3noc(=O)[nH]3)cc2Cl)nn(C)c1=O` (racemic), the Ratio EC50 in series [2] turned out to be 9.2.

With `CC(C)c1cc(C(=O)c2c(Cl)cc(NCc3noc(=O)[nH]3)cc2Cl)nn(C)c1=O`, in series [2], the Ratio EC50 is 0.8.

Take `CC(C)c1cc(C(=O)c2c(Cl)cc(NC(=O)c3noc(=O)[nH]3)cc2Cl)nn(C)c1=O`: the Ratio EC50 in series [2] was 6.1.

`CC(C)c1cc(Oc2c(Cl)cc(NC(=O)c3noc(=O)[nH]3)cc2Cl)n[nH]c1=O`: the Ratio EC50 in [2] was 21.6. For the same molecule, in [5], the Activity result is “Dose-dependent effect”.

For `CC(C)(C)c1cc(Oc2c(Cl)cc(NC(=O)c3noc(=O)[nH]3)cc2Cl)n[nH]c1=O`, in [2], the Ratio EC50 amounted to 12.3.

Broadly, the Tmax is the time from dosing to the highest level. In general, AUC(0-t) refers to the area under the concentration-time curve up to a stated or last time point. As a reminder, the MRT is a mean duration of stay, worked out from the concentration-time curve. As usually defined, the pKa is the pH at which an ionisable group is half protonated. Broadly, the bioavailability is dose-corrected exposure relative to a reference, in per cent. For the molecule `CC(C)c1cc(Oc2c(Cl)cc(NC(=O)c3noc(=O)[nH]3)cc2Cl)nn(C)c1=O`, the outcome in series [6], in series [11], in series [14] and in series [16] was Active. For the same molecule, the Tmax in [7] was 1 h. The Ratio EC50 in series [2] is 14.1. Moreover, the Vd in series [8] was 0.53 L/kg. Further, in [5], the Activity result was “Dose-dependent effect”. The molecule further returned an AUC(0-t) at 24 h in [9] of 17200 ng·h/mL. Also, in series [10], the clearance is 13 mL/min/kg. The molecule also returned an MRT in series [12] of 1.8 h. The molecule also showed a pKa in series [13] of 4.5. Moreover, the bioavailability in series [15] came out at 24%.

For `CC(C)c1cc(Oc2c(Cl)cc(N(C)Cc3noc(=O)[nH]3)cc2Cl)nn(C)c1=O`, the Ratio EC50 in series [2] was 0.5.

Turning to `CC(O)c1cc(Oc2c(Cl)cc(NC(=O)c3noc(=O)[nH]3)cc2Cl)n[nH]c1=O` (racemic), the Ratio EC50 in [2] was 16.5.

Regarding `CC(C)c1cc(Oc2c(Cl)cc(NCc3noc(=O)[nH]3)cc2Cl)nn(C)c1=O`, in [2], the Ratio EC50 turned out to be 8.6.

`CC(C)(O)c1cc(Oc2c(Cl)cc(NC(=O)c3noc(=O)[nH]3)cc2Cl)n[nH]c1=O`: the Ratio EC50 in [2] amounted to 11.1.

Regarding `CC(C)c1cc(Cc2c(Cl)cc(NC(=O)c3noc(=O)[nH]3)cc2Cl)nn(C)c1=O`, the Ratio EC50 in series [2] stood at 14.5.

As to `CC(C)c1cc(Cc2c(Cl)cc(NCc3noc(=O)[nH]3)cc2Cl)nn(C)c1=O`, the Ratio EC50 in series [2] amounted to 1.7.

For the molecule `CCC(O)c1cc(Oc2c(Cl)cc(NC(=O)c3noc(=O)[nH]3)cc2Cl)n[nH]c1=O` (racemic), the Ratio EC50 in series [2] turned out to be 16.2.

Turning to `CC(C)c1cc(Oc2c(Cl)cc(NCc3noc(=O)[nH]3)cc2Cl)n[nH]c1=O`, the Ratio EC50 in series [2] was determined as 1.8.

(Values after ChEMBL document CHEMBL4665733, “Selective thyroid hormone receptor β agonists with oxadiazolone acid isosteres” (Bioorg Med Chem Lett, 2020).)
